{"source": "patent US6756366B1", "about": "“Orally active androgens” (Akzo Nobel N.V., priority 1999, dated 2004)", "key": {"human hepatocytes": {"system": "human hepatocytes", "assay": "t1/2 after incubation with human hepatocytes", "assay_type": "in vitro ADME", "details": "cryopreserved human hepatocytes in suspension, 10 nM compound, 37° C., sampled at 0.5, 1 and 3 h, LC-MS/MS", "description": "(§1) The half-life of a compound as a result of contact with human hepatocytes holds as a reliable indication of metabolic stability. As it is well known that the absorption of this class of steroids is high, this assay provides an in vitro model for oral activity in humans.\n(§2) Hepatocytes collected from healthy young (25-45 year) male organ donors were cryo preserved in liquid nitrogen and kept there until use. They were thawed at 37° C. in a waterbath, placed immediately on ice, washed twice in one volume of cold (4° C.) incubation medium [William's medium E (without phenol red) with Glutamax I®, gentamicin 50 μg/ml, insulin 1 μM, hydrocortisone hemisuccinate 10 μM, fetal calf serum 0% (v/v)], counted and the viability checked by Trypan blue exclusion. Cells were incubated as suspensions in 12-wells (non-coated) plates at a nominal density of 0.5×10^6 cells/well in 1.5 ml medium at 37° C. with an air/O2/CO2 mixture (55/40/5). The plates were set on an orbital shaker at approximately 10 rpm.\n(§3) The hepatocytes were incubated with 10 nM final concentration of the compound to be tested. The incubations were stopped after 0.5, 1 and 3 h by pipetting the whole incubation mixture into a glass tube and adding one volume of acetone on ice. The acetone was dried under a nitrogen flow at room temperature, the volume adjusted to 1.5 ml and the tubes were centrifuged at 4° C. at 10.000×g for 30 min. The de-proteinized supernatants were collected for LC-MS/MS analysis."}, "serum LH": {"system": "serum LH", "assay": "LH suppression assay in mature male castrated rat model", "assay_type": "in vivo", "details": "mature male castrated rats, po daily for 4 days in arachis oil suspension, serum LH 3 hours after last oral dose; for ED50: Rattus norvegicus, read-out: ED50 (po) required to suppress serum LH for 50% (±10%)", "description": "The in vivo potency of several androgens of the invention was determined in a mature male castrated rat model, in comparison with MENT.\nIn this model serum LH is high (50× fold higher than with intact rats, due to the absence of the negative feedback of testicular testosterone). These rats are po treated for 4 days daily with a given compound of the invention in a suspension fluid of arachisoil. Before dosing and 3 hours after the last oral dose blood is collected via tail vene and in the serum LH is determined. Potency of the androgens (ED50) are expressed as the amount (mg/kg) of androgen which suppresses serum LH for 50% (±10%).\nThe rat LH Time-Resolved Immuno Fluorometric Assay (TR-IFMA) has been developed in house using home made reagents, a monoclonal catching antibody directed against the β-subunit of human chorion gonadotrophin (hCG, which cross react with rat β-subunit) and a biotin labelled detecting antibody (rabbit polyclonal antibody directed against the alfa-subunit of recombinant rat LH). Recombinant rat LH was prepared according to the methods described by Hakola et al (1997). In this two-site-IFMA, only intact rat LH is determined by a final incubation with streptavidin-europium. The detection in the IFMA is based on fluorescence of the lanthanide europium during a relative long exitation period. The concentration range of rat LH standard is 0.001-10 ng/ml, for optimal accuracy measurements of serum LH serum samples were diluted 8-times with assay buffer [Hakola, K., Boogaart, P. V., Mulders, J., de Leeuw, R., Schoonen, W., Heyst, J. V., Swolfs, A., Casteren, J. V., Huhtaniemi, I., and Kloosterboer, H. J., Recombinant rat luteinizing hormone; production by Chinese hamster ovary cells, purification and functional characterization, Molecular & Cellular Endocrinology 128, 47 (1997)]."}, "[1]": {"assay": "t1/2 after incubation with human hepatocytes", "assay_type": "in vitro ADME", "details": "male; cryopreserved human hepatocytes in suspension, 10 nM compound, 37° C., sampled at 0.5, 1 and 3 h, LC-MS/MS", "description": "as §1, §2, §3"}}}
{"smiles": "C[C@@H]1CC2=CC(=O)CC[C@@H]2[C@H]2CC[C@]3(C)[C@@H](O)CC[C@H]3[C@@H]21", "note": "[MENT, 7α-methyl-19-nortestosterone, reference compound]", "values": [{"measurement": "t1/2 after incubation with human hepatocytes", "setting": "human hepatocytes", "result": 20, "unit": "min"}, {"measurement": "ED50 (po) required to suppress serum LH for 50% (±10%)", "setting": "serum LH", "result": 10, "unit": "mg/kg"}]}
{"smiles": "CC[C@@H]1CC2=CC(=O)CC[C@@H]2[C@H]2CC[C@]3(C)[C@@H](O)CC[C@H]3[C@H]12", "note": "[Example 1, (7α,17β)-7-Ethyl-17-hydroxyestr-4-en-3-one]", "values": [{"measurement": "half-life at 10 nM", "setting": "[1]", "result": 48, "unit": "min"}, {"measurement": "melting point", "result": "142.5 to 143.5", "unit": "°C"}, {"measurement": "ED50", "setting": "serum LH", "result": 2.5, "unit": "mg/kg"}]}
{"smiles": "CC[C@@H]1CC2=CC(=O)CC[C@@H]2[C@H]2CC[C@]3(CC)[C@@H](O)CC[C@H]3[C@H]12", "note": "[Example 13, (7α,17β)-7,13-Diethyl-17-hydroxygon-4-en-3-one]", "values": [{"measurement": "half-life at 10 nM", "setting": "[1]", "result": 48, "unit": "min"}]}
{"smiles": "CC[C@@H]1CC2=CCCC[C@@H]2[C@H]2CC[C@]3(C)[C@@H](O)CC[C@H]3[C@H]12", "values": [{"measurement": "melting point", "result": "155 to 157", "unit": "°C"}]}
{"smiles": "C=C[C@@H]1CC2=CC(=O)CC[C@@H]2[C@H]2CC[C@]3(C)[C@@H](O)CC[C@H]3[C@@H]21", "note": "[Example 4, (7α,17β)-7-Ethenyl-17-hydroxyestr-4-en-3-one]", "values": [{"measurement": "ED50", "setting": "serum LH", "result": 2.5, "unit": "mg/kg"}]}
{"smiles": "C[C@]12CC[C@H]3[C@@H]([C@H](C4CC4)CC4=CC(=O)CC[C@@H]43)[C@@H]1CC[C@@H]2O", "note": "[Example 10, (7α,17β)-7-Cyclopropyl-17-hydroxyestr-4-en-3-one]", "values": [{"measurement": "half-life at 10 nM", "setting": "[1]", "result": 30, "unit": "min"}]}
{"smiles": "CC[C@@H]1CC2=CC(=O)CC[C@@H]2[C@@H]2[C@@H]1[C@@H]1CC[C@H](O)[C@@]1(C)C[C@@H]2C", "note": "[Example 11, (7α,11β,17β)-7-Ethyl-17-hydroxy-11-methylestr-4-en-3-one]", "values": [{"measurement": "ED50", "setting": "serum LH", "result": 5, "unit": "mg/kg"}]}
{"smiles": "C=C[C@@H]1CC2=CC(=O)CC[C@@H]2[C@H]2CC[C@]3(CC)[C@@H](O)CC[C@H]3[C@@H]21", "note": "[Example 14, (7α,17β)-7-Ethenyl-13-ethyl-17-hydroxygon-4-en-3-one]", "values": [{"measurement": "half-life at 10 nM", "setting": "[1]", "result": 20, "unit": "min"}]}
{"smiles": "C/C=C/[C@@H]1CC2=CC(=O)CC[C@@H]2[C@H]2CC[C@]3(C)[C@@H](O)CC[C@H]3[C@@H]21", "note": "[Example 6a, [7α(E),17β]-17-Hydroxy-7-(1-propenyl)estr-4-en-3-one]", "values": [{"measurement": "t1/2 after incubation with human hepatocytes", "setting": "human hepatocytes", "result": 30, "unit": "min"}]}
{"smiles": "C=C[C@@H]1CC2=C/C(=N/O)CC[C@@H]2[C@H]2CC[C@]3(C)[C@@H](O)CC[C@H]3[C@@H]21", "values": [{"measurement": "melting point", "result": "206 to 224", "unit": "°C"}]}
{"smiles": "CC[C@@H]1CC2=C(CC[C@@H](O)C2)[C@H]2CC[C@]3(C)[C@@H](O)CC[C@H]3[C@H]12", "values": [{"measurement": "melting point", "result": "98 to 100", "unit": "°C"}]}
{"smiles": "C=C[C@@H]1CC2=CC(=O)CC[C@@H]2[C@@H]2[C@@H]1[C@@H]1CC[C@H](O)[C@@]1(C)C[C@@H]2C", "note": "[Example 12, (7α,11β,17β)-7-Ethenyl-17-hydroxy-11-methylestr-4-en-3-one]", "values": [{"measurement": "ED50", "setting": "serum LH", "result": 5, "unit": "mg/kg"}]}
